Reference: patent publication US6033823A, “Mutated penicillin G acylase genes” (priority 1994, dated 2000)
Where a chain is given by its changes, count along the chain named.

What was measured:
[1] = target: T1, Alcaligenes faecalis Penicillin G acylase mutant A:M143V (Alcaligenes faecalis, UniProt O34142, M169V); test: Deacylation kinetics and phenylacetic acid product inhibition, mutant A:M143V; assay type: biochemical; settings: from progress curves of NIPAB deacylation, 25° C., 0.1 M NaH2PO4.H2O buffer pH 7.5, read-out: Ki Phenylacetic acid (inhibition constant, dissociation constant)
T1 construct: alpha 202 aa, beta 551 aa; recombinant, E. coli host
T1 sequence (O34142 27-228 M169V): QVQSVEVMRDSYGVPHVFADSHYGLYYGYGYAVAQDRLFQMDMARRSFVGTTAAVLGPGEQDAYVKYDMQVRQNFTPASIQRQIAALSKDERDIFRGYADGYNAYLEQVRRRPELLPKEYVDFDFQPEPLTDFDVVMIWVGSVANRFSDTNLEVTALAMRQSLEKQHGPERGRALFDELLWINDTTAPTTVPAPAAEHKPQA
T1 sequence (O34142 266-816): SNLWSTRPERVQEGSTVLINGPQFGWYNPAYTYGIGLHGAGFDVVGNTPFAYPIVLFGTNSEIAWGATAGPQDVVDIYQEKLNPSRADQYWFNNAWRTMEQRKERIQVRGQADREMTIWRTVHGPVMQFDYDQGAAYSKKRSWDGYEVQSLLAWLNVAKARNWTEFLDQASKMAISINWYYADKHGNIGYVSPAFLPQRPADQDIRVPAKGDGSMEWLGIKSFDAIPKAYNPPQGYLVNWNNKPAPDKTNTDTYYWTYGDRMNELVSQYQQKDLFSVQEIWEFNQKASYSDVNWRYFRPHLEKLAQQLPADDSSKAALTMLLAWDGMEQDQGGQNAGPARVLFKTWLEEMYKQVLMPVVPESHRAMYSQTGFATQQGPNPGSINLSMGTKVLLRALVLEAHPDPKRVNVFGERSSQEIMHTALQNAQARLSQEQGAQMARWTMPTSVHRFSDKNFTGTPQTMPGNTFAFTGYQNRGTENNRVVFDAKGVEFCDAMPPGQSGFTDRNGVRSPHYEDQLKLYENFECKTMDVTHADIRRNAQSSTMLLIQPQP
Protocol: In order to determine enzymatic activity the acylases were incubated with substrate at room temperature in buffered solution. In case β-lactamase impurity was expected to be present in the enzyme preparations, 1.0 mM -lactamase inhibitor 6-bromo-penicillanic acid was added to the assay. The reactions were stopped by adding an excess PMSF. For some mutants which were less sensitive to PMSF inhibition, the reactions were stopped by adding 0.5 M HCl or 0.5 M acetic acid until the pH was between 3 and 4. When reactions were subsequently analysed by HPLC, the reactions were stopped by dilution with the correponding elution solvent (see table 1). […]
The composition of the reaction mixtures was determined by high-performanceliquid chromatography (HPLC)(table 1). Concentrations were determined by using standards of known concentration.
In a continuous assay Penicillin G acylase was assayed spectro-fotometrically with the chromogenic substrate NIPAB [6-nitro-3-phenylacetamido-benzoic acid]. The liberation of 3-amino-6-nitrobenzoic acid was monitored by measuring the extinction at 405 nm in a Kontron 610 kinetic spectrofotometer. […]
Initial rate measurements were performed with excess substrate over the enzyme. Catalytic parameters were derived from least-squares fitting of the measured initial rates plotted for various substrate concentrations according to the Michaelis-Menten equation. […]

[2] = target: T2, Alcaligenes faecalis Penicillin G acylase mutant B:I177V (Alcaligenes faecalis, UniProt O34142, I442V); test: NIPAB kinetics and phenylacetic acid product inhibition, mutant B:I177V; assay type: biochemical; settings: from progress curves of NIPAB deacylation, 25° C., 0.1 M NaH2PO4.H2O buffer pH 7.5, read-out: Ki Phenylacetic acid (inhibition constant, dissociation constant)
T2 construct: alpha 202 aa, beta 551 aa; recombinant, E. coli host
T2 sequence (O34142 27-228): T1 sequence (O34142 27-228 M169V) with V143M
T2 sequence (O34142 266-816 I442V): T1 sequence (O34142 266-816) with I177V
Protocol: In a continuous assay Penicillin G acylase was assayed spectro-fotometrically with the chromogenic substrate NIPAB [6-nitro-3-phenylacetamido-benzoic acid]. The liberation of 3-amino-6-nitrobenzoic acid was monitored by measuring the extinction at 405 nm in a Kontron 610 kinetic spectrofotometer. Measuring maximal rate, the assays were performed at 25° C. using 20 mM NaH2 PO4.H2 O at pH 7.5 with 20 mM NIPAB and 100 μl enzym solution (at a proper dilution). Initial rate measurements were performed with varying concentration of NIPAB.
Initial rate measurements were performed with excess substrate over the enzyme. Catalytic parameters were derived from least-squares fitting of the measured initial rates plotted for various substrate concentrations according to the Michaelis-Menten equation.
The complete conversion of NIPAB was followed as a funtion of time at 20, 50 and 100 μM NIPAB by following the increase in absorbtion at 405 nm. Products of this conversion are phenylacetic acid and 3-amino-6-nitrobenzoic acid. The conversion was performed at 25° C. in 0.1 M NaH2 PO4.H2 O buffer pH 7.5. The progress curves of the deacylation of NIPAB could be fitted very well when product inhibition by phenylacetic acid was taken into account. […]

O=C(O)Cc1ccccc1 [phenylacetic acid]
Ki [1]: 74 µM
Ki [2]: 35 µM
